For the experiment, the system named is BDF1 mice, B16 melanoma ip, median survival T/C. The experiment is described as follows: NCI In Vivo Anticancer Drug Screen. Data for tumor model B16 Melanoma (intraperitoneal) in B6D2F1 (BDF1) mice. The settings on record: endpoint: median survival time, higher = longer survival. The essentials: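 Each result divides a survival or tumor-size measurement in the compound-treated group by the same measurement in the vehicle group.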

Setting [1] is: dose: 6.25 mg/kg/injection, schedule: Q01DX009 (ip), vehicle: Klucel (hydroxypropylcellulose) (HPC).
Setting [2] is: dose: 6.25 mg/kg/injection, schedule: Q04DX003 (ip), vehicle: Klucel (hydroxypropylcellulose) (HPC).
Setting [3] is: dose: 12.5 mg/kg/injection, schedule: Q01DX009 (ip), vehicle: Klucel (hydroxypropylcellulose) (HPC).
Where [4] appears, read: dose: 12.5 mg/kg/injection, schedule: Q04DX003 (ip), vehicle: Klucel (hydroxypropylcellulose) (HPC).
[5] abbreviates: dose: 100.0 mg/kg/injection, schedule: Q04DX003 (ip), vehicle: Klucel (hydroxypropylcellulose) (HPC).
The mark [6] stands for this setting: dose: 200.0 mg/kg/injection, schedule: Q04DX003 (ip), vehicle: Klucel (hydroxypropylcellulose) (HPC).
[7] abbreviates: dose: 400.0 mg/kg/injection, schedule: Q04DX003 (ip), vehicle: Klucel (hydroxypropylcellulose) (HPC).
The mark [8] stands for this setting: dose: 100.0 mg/kg/injection, schedule: Q01DX009 (ip), vehicle: saline with Tween-80.
Where [9] appears, read: dose: 200.0 mg/kg/injection, schedule: Q01DX009 (ip), vehicle: saline with Tween-80.
The mark [10] stands for this setting: dose: 400.0 mg/kg/injection, schedule: Q01DX009 (ip), vehicle: saline with Tween-80.
[11] abbreviates: dose: 25.0 mg/kg/injection, schedule: Q01DX009 (ip), vehicle: Klucel (hydroxypropylcellulose) (HPC).
[12] abbreviates: dose: 50.0 mg/kg/injection, schedule: Q01DX009 (ip), vehicle: Klucel (hydroxypropylcellulose) (HPC).
[13] abbreviates: dose: 100.0 mg/kg/injection, schedule: Q01DX009 (ip), vehicle: Klucel (hydroxypropylcellulose) (HPC).
Where [14] appears, read: dose: 200.0 mg/kg/injection, schedule: Q01DX009 (ip), vehicle: Klucel (hydroxypropylcellulose) (HPC).
Setting [15] is: dose: 25.0 mg/kg/injection, schedule: Q01DX009 (ip), vehicle: saline with Tween-80.
Setting [16] is: dose: 50.0 mg/kg/injection, schedule: Q01DX009 (ip), vehicle: saline with Tween-80.
Setting [17] is: dose: 400.0 mg/kg/injection, schedule: Q01DX009 (ip), vehicle: Klucel (hydroxypropylcellulose) (HPC).
[18] abbreviates: dose: 12.5 mg/kg/injection, schedule: Q01DX009 (ip), vehicle: saline with Tween-80.

“And” between values parts separate entries of the source, which are not always exact repeats. Equal entries are not always repeated. Toxic doses and inconclusive results are not listed.

Take `O=Nc1ccc2cc(O)ccc2c1O`: the T/C (dose: 3.12 mg/kg/injection, schedule: Q04DX003 (ip), vehicle: Klucel (hydroxypropylcellulose) (HPC)) is 97 % of control; the T/C under setting [1] was 95 % of control; the T/C under setting [2] was 102 % of control; the T/C under setting [3] was 109 % of control; the T/C under setting [4] is 100 % of control.

`CNc1ccc(S(=O)(=O)O)cc1`: the T/C is 100 % of control under setting [5], 100 % of control under setting [6] and 86 % of control under setting [7].

In the case of `NC(=S)N/N=C1/c2cc(Cl)ccc2-c2c(NC(=O)C(Cl)Cl)cc(Cl)cc21`, the T/C runs as follows: under setting [8], 95 % of control; under setting [9], 93 % of control; under setting [10], 86 % of control.

Regarding `Cc1cc2cc3c(C)cc(=O)oc3c(C)c2o1`, the T/C by setting is: under setting [8], 119 % of control; under setting [9], 117 % of control; under setting [10], 100 % of control.

As to `CC(C)C1(C(=O)NNC(=O)CCCc2ccc(N(CCCl)CCCl)cc2)OC2(O)CCCCCN2C1=O` (configuration not stated), the T/C under setting [2] was 105 % of control; the T/C (dose: 12.5 mg/kg/injection, schedule: Q01DX009 (ip), vehicle: DMSO) is 114 % of control; the T/C under setting [4] was 118 % of control; the T/C under setting [5] was 167 % of control.

`C[C@@H]1C(=O)C[C@H]2C(C)(C)CCC[C@]2(C)[C@@]1(O)CCc1ccoc1`: the T/C reads like this: under setting [11], 99 % of control; under setting [12], 89 % of control; under setting [13], 93 % of control; under setting [14], 86 % of control.

As to `CCC(CC)OCCN1CCN(CCCN2c3ccccc3Sc3ccc(C(F)(F)F)cc32)CC1`, the T/C reads like this: (dose: 0.5 mg/kg/injection, schedule: Q01DX009 (ip), vehicle: saline with Tween-80) 109 % of control; (dose: 1.0 mg/kg/injection, schedule: Q01DX009 (ip), vehicle: saline with Tween-80) 103 % of control.

Turning to `O=C1Cc2cc3c(cc2C=C2CCCN12)OCO3`, the T/C (dose: 12.5 mg/kg/injection, schedule: Q01DX009 (ip), vehicle: water) was 117 % of control; the T/C (dose: 25.0 mg/kg/injection, schedule: Q01DX009 (ip), vehicle: water) was 108 % of control; the T/C (dose: 50.0 mg/kg/injection, schedule: Q01DX009 (ip), vehicle: water) was 102 % of control; the T/C (dose: 100.0 mg/kg/injection, schedule: Q01DX009 (ip), vehicle: water) was 107 % of control.

As to `CS(=O)(=O)c1cc(C(F)(F)F)cc([N+](=O)[O-])c1Cl`, the T/C was 89 % of control under setting [15], 95 % of control under setting [16] and 95 % of control under setting [8].

`CN(C)C(=S)S`: the T/C by setting is: under setting [11], 118 % of control; (dose: 25.0 mg/kg/injection, schedule: Q04DX003 (ip), vehicle: Klucel (hydroxypropylcellulose) (HPC)) 100 % of control; under setting [12], 103 % of control; under setting [16], 89 % of control; (dose: 50.0 mg/kg/injection, schedule: Q04DX003 (ip), vehicle: Klucel (hydroxypropylcellulose) (HPC)) 105 % of control; under setting [13], 91 % of control. Besides, the T/C is 105 % of control under setting [8]; 94 % of control under setting [5]; 116 % of control under setting [14]; 98 % of control under setting [9]; 94 % of control under setting [6]; 98 % of control under setting [17]. Further, the T/C is 89 % of control under setting [10] and 97 % of control under setting [7].

In the case of `CC(=O)OC1C2(CC3N4C(=O)C5(CO)SSC4(CC31O)C(=O)N5C)OC(C)C(C)(C)C2=O` (configuration not stated), the T/C (dose: 0.08 mg/kg/injection, schedule: Q01DX009 (ip), vehicle: saline with Tween-80) is 96 % of control; the T/C (dose: 0.16 mg/kg/injection, schedule: Q01DX009 (ip), vehicle: saline with Tween-80) was 101 % of control; the T/C (dose: 0.3 mg/kg/injection, schedule: Q01DX009 (ip), vehicle: saline with Tween-80) was 88 % of control; the T/C (dose: 0.6 mg/kg/injection, schedule: Q01DX009 (ip), vehicle: saline with Tween-80) is 98 % of control.

Turning to `COc1cccc(/C=C/C(=O)O)c1OC`, the T/C was 101 % of control (dose: 50.0 mg/kg/injection, schedule: Q01DX009 (ip), vehicle: other); 107 % of control (dose: 100.0 mg/kg/injection, schedule: Q01DX009 (ip), vehicle: other); 98 % of control (dose: 200.0 mg/kg/injection, schedule: Q01DX009 (ip), vehicle: other); 93 % of control (dose: 400.0 mg/kg/injection, schedule: Q01DX009 (ip), vehicle: other).

In the case of `CN1CCC2(CC1)SSC1(CCN(C)CC1)S2`, the T/C by setting is: (dose: 100.0 mg/kg/injection, schedule: Q01DX009 (ip), vehicle: saline) 122 % of control; (dose: 100.0 mg/kg/injection, schedule: Q04DX003 (ip), vehicle: saline) 91 % of control; (dose: 200.0 mg/kg/injection, schedule: Q01DX009 (ip), vehicle: saline) 116 % of control; (dose: 200.0 mg/kg/injection, schedule: Q04DX003 (ip), vehicle: saline) 91 % of control.

For `c1ccc(CNC(Cc2ccccc2)c2ccc(OCc3ccccc3)cc2)cc1` (configuration not stated), the T/C reads like this: under setting [13], 106 % of control; under setting [14], 96 % of control; under setting [17], 93 % of control.

In the case of `CC(=O)Oc1c(C)c2c(O)c3c1C1=C(OCOC1=C(C)C3=O)C(C)=CC(C)(O)C(O)C(C)C(O)C1C(=O)OC(C(C)/C=C\C=C(C)C(=O)N2)C(C)C1O` (configuration not stated), the T/C (dose: 50.0 mg/kg/injection, schedule: Q01DX009 (ip), vehicle: saline) was 97 % of control.

`CC(C)=CC(=O)OC1C2C(C)C(=O)OC2C(O)C(C)C2C=CC(=O)C21C` (configuration not stated): the T/C runs as follows: under setting [1], 95 % of control; (dose: 6.25 mg/kg/injection, schedule: Q01DX009 (ip), vehicle: saline with Tween-80) 91 % of control; under setting [3], 97 % of control; under setting [18], 94 % of control; under setting [11], 93 % of control and 99 % of control; under setting [15], 97 % of control.

With `C[N+](C)(CCO)Cc1ccccc1`, the T/C is, setting by setting: under setting [16], 95 % of control; under setting [8], 90 % of control.

With `NC(CCCCNC(=O)c1ccccc1)C(=O)O` (configuration not stated), the T/C runs as follows: under setting [16], 100 % of control; under setting [8], 100 % of control; under setting [9], 92 % of control; under setting [10], 95 % of control.

As for `COC1(OC)C2(Cl)C(Cl)=C(Cl)C1(Cl)C1C(=O)C=CC(=O)C12` (configuration not stated), the T/C is, setting by setting: (dose: 1.56 mg/kg/injection, schedule: Q01DX009 (ip), vehicle: Klucel (hydroxypropylcellulose) (HPC)) 91 % of control; (dose: 3.12 mg/kg/injection, schedule: Q01DX009 (ip), vehicle: Klucel (hydroxypropylcellulose) (HPC)) 90 % of control; under setting [1], 90 % of control; under setting [3], 90 % of control; under setting [11], 91 % of control; under setting [17], 88 % of control.

For `CC[C@@]1(O)C(=O)OCc2c1cc1n(c2=O)Cc2cc3c(OC)cccc3nc2-1`, the T/C is, setting by setting: (dose: 0.39 mg/kg/injection, schedule: Q01DX009 (ip), vehicle: other) 150 % of control; (dose: 0.79 mg/kg/injection, schedule: Q01DX009 (ip), vehicle: other) 161 % of control; (dose: 2.0 mg/kg/injection, schedule: Q01DX009 (ip), vehicle: Klucel (hydroxypropylcellulose) (HPC)) 175 % of control; (dose: 4.0 mg/kg/injection, schedule: Q01DX009 (ip), vehicle: carboxymethylcellulose (CMC)) 172 % of control.

Turning to `Cc1ccccc1N=Nc1c(N)ccc2ccccc12`, the T/C is, setting by setting: under setting [12], 110 % of control; under setting [13], 106 % of control; under setting [14], 106 % of control.

Consider `O=C(OCc1ccccc1)C(Cl)(Cl)Cl`, for which the T/C is, setting by setting: (dose: 100.0 mg/kg/injection, schedule: Q04DX003 (ip), vehicle: saline with Tween-80) 105 % of control; (dose: 200.0 mg/kg/injection, schedule: Q04DX003 (ip), vehicle: saline with Tween-80) 100 % of control; (dose: 400.0 mg/kg/injection, schedule: Q04DX003 (ip), vehicle: saline with Tween-80) 102 % of control.

As for `CCc1nc2cc(C)c(C)cc2[nH]1`, the T/C runs as follows: under setting [18], 106 % of control; under setting [15], 104 % of control; under setting [16], 104 % of control.
